In publication PMC7349888, “Synthesis and Evaluation of Dodecaboranethiol Containing Kojic Acid (KA-BSH) as a Novel Agent for Boron Neutron Capture Therapy” (Cells, 2020):

What was measured:
F98 rat glioma cells = assay: In vitro 10B uptake in F98 cells (ICP-AES); assay type: cell-based; conditions: 24 h incubation in DMEM with 1 mM boron compound
Experimental: (§1) For the in vitro ^10B uptake study, B16 mouse melanoma cells, C6 rat glioma cells, and F98 rat glioma cells were used. B16 and C6 cells were used for in vitro testing at Osaka Prefecture University. Based on results from initial in vitro screening, the in vitro ^10B uptake study using F98 glioma cells were performed at Osaka Medical College. Four hundred thousand cells were seeded in a tissue culture dish (100 × 20 mm; Becton Dickinson, Franklin Lakes, NJ, USA) with DMEM supplemented with 10% FBS and 10% penicillin and streptomycin at 37 °C in a 5% CO2 atmosphere. After incubation for 4 days at 37 °C, the medium was removed, and DMEM with 10% FBS containing 1 mM KA-BSH, BSH, or BPA was added to each dish. The cells were incubated for an additional 24 h at 37 °C. The medium was then removed, and the cells were washed twice with 4 °C phosphate-buffered saline (PBS) and detached with trypsin–ethylenediamine tetraacetic acid solution. PBS was then added, and cells were digested overnight with 1 N nitric acid solution (Wako Pure Chemical Industries, Osaka, Japan), and ^10B uptake was determined by inductively coupled plasma atomic emission spectrometry (ICP-AES) using an iCAP6000 emission spectrometer (Hitachi High-Technologies, Tokyo, Japan).

B16 mouse melanoma cells = assay: In vitro boron uptake in B16 cells; assay type: cell-based; conditions: Figure S1
Experimental: as §1

F98 glioma bearing rats = assay: In vivo BNCT therapeutic experiment, neutron irradiation at KURRI; set-up: species or system rat
Excerpt: All animal experimental procedures were approved by the Animal Use Review Board and Ethical Committee of Osaka Medical College (No. 25092, 28 October 2015) and Kyoto University Research Reactor Institute (KURRI, No. 25030-13, 1 April 2015), and performed following the Guide for the Care and Use of Laboratory Animals. Eight-week-old, male Fischer 344 rats weighing between 200 and 250 g were used (Japan SLC, Inc. Shizuoka, Japan). Rats were anesthetized with an intraperitoneal (ip) injection of a mixture of medetomidine 0.15 mg, midazolam 2 mg, and butorphanol 2.5 mg/kg body weight (bw). The head of each rat was fixed with a stereotactic frame (Model 900; David Kopf Instruments, Tujunga, CA, USA). The scalp was incised at the midline and a small burr hole was drilled into the skull (1 mm posterior and 4 mm right-lateral to the bregma), using an electric drill. And then, F98 glioma cells were injected into the brain using a 25 µL Hamilton microsyringe with a 26-gauge needle (model 1700 RN, Hamilton Bonaduz AG, Bonaduz, Switzerland). The needle was inserted at a 5 mm depth from the skull and F98 cells were diluted in 10 µL of DMEM containing low-gelling temperature agarose at a concentration of either 10^3 for therapeutic experiments or 10^5 cells for biodistribution experiments. They were injected over 30 s using an automatic infuser pump. The needle entry hole was immediately sealed with bone wax and the incised scalp was closed with 3-0 silk sutures (Ethicon, North Ryde, NSW). […]
Therapeutic experiments for BNCT were performed 14 days after stereotactic implantation of 10^3 F98 glioma cells. […] The therapeutic effect of BNCT was evaluated by the survival time of the animals. […]
The means and standard deviations (SD) were computed for ^10B concentrations of F98 glioma cells and tissues of Fischer rats bearing intracerebral implants of the F98 glioma. […] Statistical differences between means were calculated using the Student’s unpaired t-test. In therapeutic experiments, the median survival time (MST) was calculated for each group using the Kaplan–Meier estimate. […]

C6 rat glioma cells = assay: In vitro boron uptake in C6 cells; assay type: cell-based; conditions: Figure S1
Experimental: as §1

[1] = 10 mg 10B/kg iv, BNCT 1 h after administration

Substance: S-(2-(5-hydroxy-4-oxo-4H-pyran-2-yl) methyl) Thioundecahydro-Closo- Dodecaborate (2-) Disodium Salt [KA-BSH]
- 10B concentration of F98 rat glioma cells (F98 rat glioma cells): 0.821 ± 0.047 µg 10B/10^7 cells
- boron uptake into cancer cells (B16 mouse melanoma cells): taken up into cancer cells
- Survival Time, Median (MST) (F98 glioma bearing rats; [1]): 36.0 days
- Survival Time, Range (F98 glioma bearing rats; [1]): 32 – 38
- %ILS Median (percent increase life span) (F98 glioma bearing rats; relative to median survival time of untreated controls): 22.0%
- boron uptake into cancer cells (C6 rat glioma cells): taken up into cancer cells
